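The compound was tested at five concentrations on cells cultured in 96-well plates, with a 48-hour exposure period. Abbreviation: GI50, concentration required for 50% inhibition of growth. Definition used: TGI = concentration required for complete inhibition of growth.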 Where a SMILES comes first, the peptide text is derived from it. The star is where a group is joined. Boc = CC(C)(C)OC(=O)*; nBu = CCCC*
Columns and labels:
Test in all cases: DTP human tumour cell line panel, 48 h
[1] = test system: RPMI-8226 leukemia
[2] = test system: OVCAR-8 ovarian
[3] = test system: ACHN renal
[4] = test system: MDA-N
[5] = test system: A498 renal
[6] = test system: SK-MEL-5 melanoma
[7] = test system: NCI-H226 lung
[8] = test system: SK-MEL-2 melanoma
[9] = test system: SW-620 colon
[10] = test system: CAKI-1 renal
[11] = test system: SR leukemia
[12] = test system: SN12C renal
[13] = test system: HCT-15 colon

Structure (SMILES)	TGI [1] [µM]	TGI [2] [µM]	TGI [3] [µM]	TGI [4] [µM]	TGI [5] [µM]	TGI [6] [µM]	TGI [7] [µM]	TGI [8] [µM]	TGI [9] [µM]	TGI [10] [µM]	TGI [11] [µM]	TGI [12] [µM]	TGI [13] [µM]	GI50 [7] [µM]	GI50 [3] [µM]	GI50 [6] [µM]	GI50 [8] [µM]	GI50 [9] [µM]	GI50 [11] [µM]	GI50 [13] [µM]
Oc1ccccc1C=Nc1ccc(-c2nc3ccccc3s2)cc1	> 100	> 100	73	> 100	52.4	31.9	99.1	50.5	> 100	> 100	> 100	> 100	> 100							
CC1(C)OC[C@@H]([C@@]2(COC(c3ccccc3)(c3ccccc3)c3ccccc3)CC=CC(=O)O2)O1	64.7	> 100	> 100		71.4		> 100	31.1	> 100	> 100	> 100	97.1	> 100							
CCCCCCCCCCCCCCCc1nc(=S)[nH][nH]1	> 100		> 100		> 100			> 100			> 100	> 100	> 100							
O=C(Nc1ccccc1)Oc1ccc(C(=S)Nc2ccc(Br)cc2)cc1	> 100	29.2	97.9	47.2	54.5	31.1		47.8	> 100	41	50.8		34.5							
CC1=NN(c2nc(N)nc(/C(C#N)=C\c3ccc(-c4ccc([N+](=O)[O-])cc4)o3)n2)C(C)(C)C1	> 100	> 100	> 100	> 100	> 100	> 100	> 100	> 100	> 100	> 100	> 100	> 100	> 100							
COC(=O)/C=C\C(C#N)(C#N)N=Cc1ccc(OC)cc1	2.87	9.46	8.64	16.5	33	32.6	25.3	35.5	14.6	4.48	3.99	30.9	13.2							
Cc1cc(-c2nc3c(F)cccc3s2)ccc1N	> 100	> 100	> 100	> 100	> 100	> 100	> 100	> 100	> 100	> 100	> 100	> 100	> 100	5.45						
COc1cc(C2S/C(=C/c3ccccc3)C(=O)N2c2cccc(NC(C)=O)c2)cc(OC)c1OC (stereo not drawn)		> 100	> 100	> 100	93.7	> 100	> 100			> 100	> 100	> 100	> 100							
O=CNc1ccccc1OCCOc1ccccc1NC=O	> 100	> 100	> 100	> 100	> 100	> 100	> 100	> 100	> 100	> 100	> 100	> 100	> 100							
O=P(NCCCO)(OCc1ccccc1)N(CCCl)CCCl (stereo not drawn)		> 100			> 100	> 100	> 100	> 100	> 100	> 100		> 100	> 100							
COc1ccccc1-c1c(C#N)c(N)[nH]c(=S)c1C#N	> 100	> 100	> 100	67.1	> 100	> 100	> 100	> 100	> 100	> 100	> 100	91.8	> 100							
CC(Oc1ccc(Cl)cc1Cl)C(=O)NN1C(=O)CC(=O)N(c2ccccc2)C1=S (stereo not drawn)	> 100	> 100	> 100		95.1	> 100	> 100	> 100	> 100	> 100	22.4	> 100	> 100							
CC(C)CC(N)C(=O)NC(C(=O)NC(CCCNC(=N)N)C(=O)NC(CS)C(=O)NC1CSCC(C(=O)NC(Cc2ccccc2)C(=O)NC(C(=O)NC(CCCNC(=N)N)C(=O)O)C(C)C)NC(=O)C2CCCN2C(=O)C(CCCCN)NC(=O)C2CCCN2C(=O)C2CCCN2C(=O)C(Cc2ccc(O)cc2)NC(=O)C(CO)NC(=O)C(CCCCN)NC(=O)C(C(C)O)NC(=O)C(Cc2c[nH]c3ccccc23)NC1=O)C(C)C (stereo not drawn)	> 25	> 25	> 25	> 25	> 25	> 25	> 25	> 25	> 25	> 25	> 25	> 25	> 25							
COc1ccc(C2C3CCc4ccccc4C3=NN2S(=O)(=O)c2cccc(C(=O)O)c2OC)cc1 (stereo not drawn)	54.7	> 100	63.9	7.25		> 100	> 100	60	> 100	> 100	> 100	> 100	0.778							
Nc1nc(SCC(=O)c2ccc(Br)cc2)c2[nH]cnc2n1	> 100	> 100	> 100	> 100	> 100	60.3	> 100	> 100	> 100	> 100	> 100	> 100	> 100							
COc1ccc(CCn2cncn2)cc1			> 100			> 100	> 100		> 100		> 100	> 100	> 100							
COc1ccccc1N/C(SCc1ccccc1)=C(/C(Cl)=C(Cl)Cl)[N+](=O)[O-]	88.2	27.4	> 100	> 100	> 100		> 100	> 100	31.7	74.9		47.3	49.8							
COc1ccc2nc3cc(Cl)ccc3c(NCCCN3CCN(CCCNc4ccc5nnn6c7ccccc7c(=O)c4c56)CC3)c2c1	> 25	> 25		> 25	> 25	> 25	> 25	> 25	> 25	> 15.8	> 25	> 25	> 25							

Structure (SMILES)	TGI [1] [µM]	TGI [2] [µM]	TGI [3] [µM]	TGI [4] [µM]	TGI [5] [µM]	TGI [6] [µM]	TGI [7] [µM]	TGI [8] [µM]	TGI [9] [µM]	TGI [10] [µM]	TGI [11] [µM]	TGI [12] [µM]	TGI [13] [µM]	GI50 [7] [µM]	GI50 [3] [µM]	GI50 [6] [µM]	GI50 [8] [µM]	GI50 [9] [µM]	GI50 [11] [µM]	GI50 [13] [µM]
Cc1ccc(-c2cn3c(nc4ccccc43)c(/C=C/c3ccco3)n2)cc1	67.7		> 100	> 100	> 100	> 100	> 100	72.9	> 100		89	> 100	> 100							
CCCCOc1ccc(CC(NC(=O)OC(C)(C)C)C(=O)NC(C)C(=O)NC(Cc2ccccc2)C(=O)NCC(N)=O)cc1 (stereo not drawn) (Boc-Y(nBu)AFG-NH2; configuration not given here)	> 100	> 100	> 100	> 100	> 100	> 100	> 100	51	> 100	> 100		> 100	> 100							
COC(=O)c1c(O)ccc2c1c1cc3ccccc3c(O)c1n2CCc1ccc(OC)c(OC)c1	> 100	> 100	> 100	> 100	> 100	> 100	> 100	> 100		> 100	> 100	> 100	> 100							
CN1CCC(C(O)(c2ccccc2)c2ccc(Br)cc2)CC1 (stereo not drawn)	45.8	> 100	> 100	28.2		27.9	59.5	30.3	61.1	> 100	47.6	44.3	> 100							
CCc1n[nH]c(=O)n1/N=C(\C)c1ccccc1	> 100	> 100	> 100	> 100	> 100	> 100	> 100	> 100	> 100	> 100		> 100	> 100							
CN(CCc1ccccn1)c1ccc2c(c1)C(=O)c1ccccc1-2	> 100	> 100	> 100	> 100	> 100	98.3	> 100	> 100	> 100	> 100		> 100	> 100							
CC(=O)Nc1cccc(N2C(=O)/C(=C\c3cccc(Oc4ccccc4)c3)SC2c2ccccc2)c1 (stereo not drawn)	89	> 100	> 100	> 100	> 100	> 100	> 100	> 100	> 100	> 100	47.1	> 100	> 100							
C=C1C(O)C2(O)OCC34C(CC5C(C)=CC(=O)C(O)C5(C)C23)OC(=O)C(OC(=O)C/C=C/CCCCCCCC)C14 (stereo not drawn)	0.0249	0.0241			0.0324		0.029	0.0361	0.0471	0.232		0.193	0.0979							
CCOc1nc2c(N3CCCC3)nc(N3CCNCC3)nc2nc1NCc1ccccc1	3.37	4.1	4.55	2.31		2.71	3.82	3.11	3.49	6.71	3.12	2.96	3.45							
O=C(O)c1cc2ccccc2c(N=Nc2ccc(S(=O)(=O)Nc3ncccn3)cc2)c1O	> 100	> 100	> 100			> 100	> 100	> 100	> 100	> 100	> 100		> 100							
O=C(Cc1nc2ccccc2[nH]c1=O)c1c[nH]c2ccccc12	> 100	45.9	22.3	> 100	51.9	26.9	31.3	28.9	> 100	63.4	> 100	54.3	> 100							
CC(Oc1ccccc1Cl)C(=O)NN1C(=O)CC(=O)N(c2ccc(Cl)cc2)C1=S (stereo not drawn)	> 100	> 100	> 100	> 100	72.9	> 100	> 100	98.2	> 100	> 100	54.4	> 100	> 100							
COc1cccc(C23CCN(C)C(CC(O)C2)C3)c1OC (stereo not drawn)	> 100	> 100	> 100	> 100	> 100	> 100	> 100	> 100	> 100	> 100	> 100	> 100	> 100							
CN(C)c1ccc(-c2ccc(-c3ccc(C(=N)N)cn3)o2)cc1			3.13			3		3.65	2.41		2.01		2.98		1.75	1.58	1.96	0.774	0.378	1.36
C#C[C@]1(O)CC[C@H]2[C@@H]3CCc4cc(O)ccc4[C@H]3CC[C@@]21C		> 100	> 100		77.4	52.2	92.8	82.9	> 100	> 100	> 100	> 100	> 100							
Cc1c(-c2ccccc2)[nH]c2cn[nH]c(=O)c12	> 100	> 100	> 100	> 100	> 100	> 100		> 100	> 100	> 100	> 100		> 100							
O=[N+]([O-])c1ccc(N=Nc2c(O)[nH]c3ccccc23)c([N+](=O)[O-])c1	> 100	27.8	19.2	> 100	79.4	> 100	75.5		> 100	43.9	> 100	38.8	57.9							
Cc1ccc(-c2cc(-c3ccc(Cl)cc3)nc(/N=C3\C(=O)N(CN(C)C)c4ccccc43)n2)cc1		> 100	> 100	43.9	> 100	> 100	> 100	> 100	> 100	> 100		> 100	> 100							
